The test system of assay [1] is Puccinia triticina; Synonym: Puccinia recondita f sp. tritici. The experiment in a line: Wheat Brown Rust (PUCCRT) fungicidal activity on wheat seedlings. The format is in vivo. The note with it: for pest or weed control at 100 ppm: High Volume; for pest or weed control at 121.5 g/ha: Low Volume, 121.5 g/H. As to the method:
Technical grades of materials were dissolved in acetone, which were then mixed with nine volumes of water (H2O) containing 110 ppm Triton X-100. The fungicide solutions were applied onto wheat seedlings using an automated booth sprayer to run-off. All sprayed plants were allowed to air dry prior to further handling. All fungicides were evaluated using the aforementioned method for their activity vs. all target diseases, unless stated otherwise. Wheat leaf blotch and brown rust activity were also evaluated using track spray applications, in which case the fungicides were formulated as EC formulations, containing 0.1% Trycol 5941 in the spray solutions. Wheat plants (variety Yuma) were grown from seed in a greenhouse in 50% mineral soil/50% soil-less Metro mix until the first leaf was fully emerged, with 7-10 seedlings per pot. These plants were inoculated with an aqueous spore suspension of Septoria tritici either prior to or after fungicide treatments. After inoculation the plants were kept in 100% relative humidity (one day in a dark dew chamber followed by two to three days in a lighted dew chamber at 20° C.) to permit spores to germinate and infect the leaf. The plants were then transferred to a greenhouse set at 20° C. for disease to develop. When disease symptoms were fully expressed on the 1st leaves of untreated plants, infection levels were assessed on a scale of 0 to 100 percent disease severity. Percent disease control was calculated using the ratio of disease severity on treated plants relative to untreated plants. Example B: Evaluation of Fungicidal Activity: Wheat Brown Rust (Puccinia triticina; Synonym: Puccinia recondita f sp. tritici; Bayer code PUCCRT): Wheat plants (variety Yuma) were grown from seed in a greenhouse in 50% mineral soil/50% soil-less Metro mix until the first leaf was fully emerged, with 7-10 seedlings per pot. These plants were inoculated with an aqueous spore suspension of Puccinia triticina either prior to or after fungicide treatments. After inoculation the plants were kept in a dark dew room at 22° C. with 100% relative humidity overnight to permit spores to germinate and infect the leaf. The plants were then transferred to a greenhouse set at 24° C. for disease to develop. Fungicide formulation, application and disease assessment followed the procedures as described in the Example A.

Assay [2] relates to Mycosphaerella graminicola; Anamorph: Septoria tritici. The experiment in a line: Leaf Blotch of Wheat (SEPTTR) fungicidal activity on wheat seedlings. The format is in vivo. The note with it: Zymoseptoria tritici; for pest or weed control at 100 ppm: High Volume; for pest or weed control at 121.5 g/ha: Low Volume, 121.5 g/H. As to the method:
Example A: Evaluation of Fungicidal Activity: Leaf Blotch of Wheat (Mycosphaerella graminicola; Anamorph: Septoria tritici; Bayer code […]): Technical grades of materials were dissolved in acetone, which were then mixed with nine volumes of water (H2O) containing 110 ppm Triton X-100. The fungicide solutions were applied onto wheat seedlings using an automated booth sprayer to run-off. All sprayed plants were allowed to air dry prior to further handling. All fungicides were evaluated using the aforementioned method for their activity vs. all target diseases, unless stated otherwise. Wheat leaf blotch and brown rust activity were also evaluated using track spray applications, in which case the fungicides were formulated as EC formulations, containing 0.1% Trycol 5941 in the spray solutions. Wheat plants (variety Yuma) were grown from seed in a greenhouse in 50% mineral soil/50% soil-less Metro mix until the first leaf was fully emerged, with 7-10 seedlings per pot. These plants were inoculated with an aqueous spore suspension of Septoria tritici either prior to or after fungicide treatments. After inoculation the plants were kept in 100% relative humidity (one day in a dark dew chamber followed by two to three days in a lighted dew chamber at 20° C.) to permit spores to germinate and infect the leaf. The plants were then transferred to a greenhouse set at 20° C. for disease to develop. When disease symptoms were fully expressed on the 1st leaves of untreated plants, infection levels were assessed on a scale of 0 to 100 percent disease severity. Percent disease control was calculated using the ratio of disease severity on treated plants relative to untreated plants.

The mark [3] stands for this setting: 24 h, 1 Day Protectant, read-out: PUCCRT 1DP disease control.
[4] abbreviates: 72 h, 3 Day Curative, read-out: PUCCRT 3DC disease control.
[5] abbreviates: 24 h, 1 Day Protectant, read-out: SEPTTR 1DP disease control.
Where [6] appears, read: 72 h, 3 Day Curative, read-out: SEPTTR 3DC disease control.

Where two headings read alike, the source gives them in different places. Some results are limits rather than exact numbers.

`COc1ccnc(C(=O)N[C@@H](C)C(=O)O[C@@H](C)C(c2ccc(F)cc2)c2ccc(F)cc2)c1O` [Cmpd 92]: the pest or weed control at 100 ppm in assay [1] (setting [3]), in assay [1] (setting [4]), in assay [2] (setting [5]) and in assay [2] (setting [6]) was > 80% in each case.
On to `COc1ccnc(C(=O)N[C@@H](CC(C)C)C(=O)O[C@@H](C)C(c2ccc(F)cc2)c2ccc(F)cc2)c1OC(C)=O` [Cmpd 190], for which the pest or weed control at 121.5 g/ha in assay [1] (setting [3]), in assay [2] (setting [5]) and in assay [2] (setting [6]) was < 80% throughout.
In the case of `COc1ccnc(C(=O)N[C@@H](C)C(=O)O[C@@H](C)C(c2ccc(Br)cc2)c2ccc(Br)cc2)c1O` [Cmpd 103], the pest or weed control at 100 ppm in assay [1] (setting [3]) is > 80%; in assay [1] (setting [4]) it was < 80%; in assay [2] (setting [5]), > 80%; in assay [2] (setting [6]), > 80%.
As to `COc1ccnc(C(=O)N[C@@H](C)C(=O)O[C@@H](C)C(c2ccc(C)c(Cl)c2)c2ccc(C)c(Cl)c2)c1O` [Cmpd 121], the pest or weed control at 100 ppm in assay [1] (setting [3]) was > 80%; in assay [1] (setting [4]), < 80%; in assay [2] (setting [5]), > 80%; in assay [2] (setting [6]), > 80%.
As for `COc1ccnc(C(=O)N[C@@H](C)C(=O)O[C@@H](C)C(F)(c2ccccc2)c2ccccc2)c1OCOC(C)=O` [Cmpd 153], the pest or weed control at 121.5 g/ha is < 80% in assay [1] (setting [3]), < 80% in assay [1] (setting [4]), > 80% in assay [2] (setting [5]) and > 80% in assay [2] (setting [6]).
For the molecule `COc1ccnc(C(=O)N[C@@H](C)C(=O)O[C@@H](C)C(c2ccc(C)s2)c2ccc(C)s2)c1OCOC(C)=O` [Cmpd 170], the pest or weed control at 121.5 g/ha in assay [1] (setting [3]), in assay [1] (setting [4]), in assay [2] (setting [5]) and in assay [2] (setting [6]) was < 80% in each case.
Turning to `COc1ccnc(C(=O)N[C@@H](C)C(=O)O[C@@H](C)C(c2ccc(F)c(Cl)c2)c2ccc(F)c(Cl)c2)c1OCOC(C)=O` [Cmpd 219], the pest or weed control at 121.5 g/ha in assay [1] (setting [3]), in assay [2] (setting [5]) and in assay [2] (setting [6]) was > 80% each time.
Turning to `COc1ccnc(C(=O)N[C@@H](C)C(=O)O[C@@H](C)[C@@H](c2ccccc2)c2ccc(C(F)(F)F)cc2)c1OCOC(C)=O` [Cmpd 175], the pest or weed control at 121.5 g/ha in assay [1] (setting [3]), in assay [1] (setting [4]), in assay [2] (setting [5]) and in assay [2] (setting [6]) was > 80% throughout.
Consider `COc1ccnc(C(=O)N[C@@H](C)C(=O)O[C@@H](C)C(c2ccc(C)cc2)c2ccc(C)cc2)c1OCOC(C)=O` [Cmpd 171], for which the pest or weed control at 121.5 g/ha in assay [1] (setting [3]), in assay [1] (setting [4]), in assay [2] (setting [5]) and in assay [2] (setting [6]) was > 80% each time.
Regarding `CCOC(c1ccccc1)(c1ccccc1)[C@H](C)OC(=O)[C@H](C)NC(=O)c1nccc(OC)c1OCOC(C)=O` [Cmpd 147], the pest or weed control at 121.5 g/ha was < 80% in assay [1] (setting [3]), < 80% in assay [1] (setting [4]), < 80% in assay [2] (setting [5]) and > 80% in assay [2] (setting [6]).
As to `COc1ccnc(C(=O)N[C@@H](C)C(=O)O[C@@H](C)C(c2ccc(F)c(Cl)c2)c2ccc(F)c(Cl)c2)c1OC(C)=O` [Cmpd 216], the pest or weed control at 121.5 g/ha was > 80% in assay [1] (setting [3]), < 80% in assay [1] (setting [4]), > 80% in assay [2] (setting [5]) and < 80% in assay [2] (setting [6]).
Turning to `COc1ccnc(C(=O)N[C@@H](CC(C)C)C(=O)O[C@@H](C)C(c2ccc(F)cc2)c2ccc(F)cc2)c1O` [Cmpd 116], the pest or weed control at 100 ppm in assay [1] (setting [3]), in assay [2] (setting [5]) and in assay [2] (setting [6]) was < 80% each time.
In the case of `COc1ccnc(C(=O)N[C@@H](C)C(=O)O[C@@H](C)C(c2ccc(-c3ccccc3)cc2)c2ccc(-c3ccccc3)cc2)c1O` [Cmpd 109], the pest or weed control at 100 ppm in assay [1] (setting [3]) and in assay [2] (setting [6]) was < 80% each time.
With `CCc1ccc(C(c2ccc(CC)cc2)[C@H](C)OC(=O)[C@H](C)NC(=O)c2nccc(OC)c2O)cc1` [Cmpd 124], the pest or weed control at 100 ppm in assay [1] (setting [3]), in assay [1] (setting [4]), in assay [2] (setting [5]) and in assay [2] (setting [6]) was > 80% throughout.
In the case of `COc1ccc(C(c2ccc(OC)cc2)[C@H](C)OC(=O)[C@H](C)NC(=O)c2nccc(OC)c2O)cc1` [Cmpd 98], the pest or weed control at 100 ppm in assay [1] (setting [3]), in assay [1] (setting [4]), in assay [2] (setting [5]) and in assay [2] (setting [6]) was > 80% throughout.
With `CC(=O)OCOc1cccnc1C(=O)N[C@@H](C)C(=O)O[C@@H](C)C(c1ccc(F)cc1)c1ccc(F)cc1` [Cmpd 178], the pest or weed control at 121.5 g/ha in assay [1] (setting [3]) was < 80%; in assay [2] (setting [5]) it was > 80%; in assay [2] (setting [6]), > 80%.
On to `COc1ccnc(C(=O)N[C@@H](C)C(=O)O[C@@H](C)C(c2ccc(C)c(Cl)c2)c2ccc(C)c(Cl)c2)c1OCOC(C)=O` [Cmpd 195], for which the pest or weed control at 121.5 g/ha is > 80% in assay [1] (setting [3]), < 80% in assay [1] (setting [4]), > 80% in assay [2] (setting [5]) and < 80% in assay [2] (setting [6]).
For the molecule `COc1ccnc(C(=O)N[C@@H](C)C(=O)O[C@@H](C)C(c2ccc(F)cc2)c2ccc(F)cc2)c1OCOC(=O)C(C)C` [Cmpd 211], the pest or weed control at 121.5 g/ha in assay [1] (setting [3]), in assay [1] (setting [4]), in assay [2] (setting [5]) and in assay [2] (setting [6]) was > 80% each time.
As to `COc1cccc(C(c2cccc(OC)c2)[C@H](C)OC(=O)[C@H](C)NC(=O)c2nccc(OC)c2OCOC(C)=O)c1` [Cmpd 192], the pest or weed control at 121.5 g/ha in assay [1] (setting [3]), in assay [1] (setting [4]), in assay [2] (setting [5]) and in assay [2] (setting [6]) was > 80% in each case.
On to `COc1ccc(C(c2ccc(OC)cc2)[C@H](C)OC(=O)[C@H](C)NC(=O)c2nccc(OC)c2OCOC(C)=O)cc1` [Cmpd 158], for which the pest or weed control at 121.5 g/ha in assay [1] (setting [3]), in assay [1] (setting [4]), in assay [2] (setting [5]) and in assay [2] (setting [6]) was > 80% throughout.
With `CCc1ccc(C(c2ccc(CC)cc2)[C@H](C)OC(=O)[C@H](C)NC(=O)c2nccc(OC)c2OCOC(C)=O)cc1` [Cmpd 198], the pest or weed control at 121.5 g/ha is > 80% in assay [1] (setting [3]), < 80% in assay [1] (setting [4]), > 80% in assay [2] (setting [5]) and > 80% in assay [2] (setting [6]).
As to `COc1ccnc(C(=O)N[C@H](C(=O)O[C@@H](C)C(c2ccc(F)cc2)c2ccc(F)cc2)C(C)C)c1OCOC(C)=O` [Cmpd 185], the pest or weed control at 121.5 g/ha is > 80% in assay [1] (setting [3]), < 80% in assay [1] (setting [4]), > 80% in assay [2] (setting [5]) and > 80% in assay [2] (setting [6]).
For the molecule `COc1ccnc(C(=O)N[C@@H](C)C(=O)O[C@@H](C)C(O)(c2ccc(Cl)c(F)c2)c2ccc(Cl)c(F)c2)c1O` [Cmpd 128], the pest or weed control at 100 ppm in assay [1] (setting [3]) is < 80%; in assay [2] (setting [5]), > 80%; in assay [2] (setting [6]), < 80%.

For the origin of these results see US20240423207A1, “PICOLINAMIDE COMPOUNDS WITH FUNGICIDAL ACTIVITY” (CORTEVA AGRISCIENCE LLC, priority 2014, published 2024).
